Laboratory results published in patent publication US9445594B2, “Molecules having certain pesticidal utilities, intermediates, compositions, and processes, related thereto” (priority 2014, dated 2016).

How the values were obtained:
Assay type in all cases: in vivo
[1] = system: Beet Armyworm (Spodoptera exigua, LAPHEG) ("BAW"); assay: Bioassays on BAW, 128-well diet tray assay; conditions: 168 h, second instar larvae, 50 μg/cm^2 on artificial diet, 25° C., five to seven days, average of eight wells, read-out: BAW % Control (or Mortality) rating
In short: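 One to five second-instar larvae were placed per well on artificial diet surface-treated with 50 μg/cm^2 compound from 90:10 acetone-water, dried before infestation. Trays were held at 25 °C, 14:10 light-dark, for five to seven days. Percent mortality was averaged over eight wells.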

[2] = system: Corn Earworm (Helicoverpa zea, HELIZE) ("CEW"); assay: Bioassays on CEW, 128-well diet tray assay; conditions: 168 h, second instar larvae, 50 μg/cm^2 on artificial diet, 25° C., five to seven days, average of eight wells, read-out: CEW % Control (or Mortality) rating
Description: Certain molecules disclosed in this document were tested against BAW, CEW, and CL using procedures described in the following examples. In the reporting of the results, the “BAW, CEW, & CL Rating Table” was used (See Table Section).
Bioassays on CEW were conducted using a 128-well diet tray assay. one to five second instar CEW larvae were placed in each well (3 mL) of the diet tray that had been previously filled with 1 mL of artificial diet to which 50 μg/cm^2 of the test compound (dissolved in 50 μL of 90:10 acetone-water mixture) had been applied (to each of eight wells) and then allowed to dry. Trays were covered with a clear self-adhesive cover, and held at 25° C., 14:10 light-dark for five to seven days. Percent mortality was recorded for the larvae in each well; activity in the eight wells was then averaged. The results are indicated in the table entitled “Table ABC: Biological Results” (See Table Section). Bioassays on CL

[3] = system: Green Peach Aphid (Myzus persicae, MYZUPE) ("GPA"); assay: Bioassays on GPA, foliar spray of infested cabbage seedlings; conditions: 72 h, 200 ppm spray on cabbage seedlings, graded after three days, Abbott corrected % control, read-out: GPA % Control (or Mortality) rating
In short: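 Cabbage seedlings (2-3 true leaves) infested with 20-50 wingless adult and nymph aphids one day before spraying to runoff at 200 ppm in aqueous 0.025% Tween 20 with 20% acetone/methanol. Live aphids counted after three days at ~25 °C; % control by Abbott's correction versus solvent-check plants.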

[4] = system: Yellow Fever Mosquito (Aedes aegypti, AEDSAE) ("YFM"); assay: Bioassays on YFM, 96-well plate larval assay; conditions: about 1 day-old larvae, from 4000 ppm DMSO master plate diluted, room temperature, scored after 3 days
In short: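 Compounds from 4000 ppm DMSO master plates, diluted in 90:10 water:acetone, dispensed into 96-well plates, six replicates. About 1-day-old larvae added in liver-powder water. Wells covered, held 3 days at room temperature, then scored for mortality.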

[5] = system: Cabbage Looper (Trichoplusia ni, TRIPNI) ("CL"); assay: Bioassays on CL, 128-well diet tray assay; conditions: 168 h, second instar larvae, 50 μg/cm^2 on artificial diet, 25° C., five to seven days, average of eight wells, read-out: CL % Control (or Mortality) rating
In short: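 Second-instar larvae (one to five per well) on artificial diet surface-treated with 50 μg/cm^2 compound in 90:10 acetone-water, eight wells per treatment. Held at 25° C., 14:10 light-dark for five to seven days. Percent mortality scored per well and averaged over the eight wells.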

SMILES	mortality at 50 µg/cm2 [1]	mortality at 50 µg/cm2 [2]	mortality at 200 ppm [3]	YFM % Control (or Mortality) rating [4]	mortality at 50 µg/cm2 [5]
Cc1ccc(C)n1-c1ccccc1NC(=S)Nc1ccc(-c2ncn(-c3ccc(OC(F)(F)F)cc3)n2)cc1 [F75, 1-(2-(2,5-Dimethyl-1H-pyrrol-1-yl)phenyl)-3-(4-(1-(4-(trifluoromethoxy)phenyl)-1H-1,2,4-triazol-3-yl)phenyl)thiourea]	50 to 100%	50 to 100%	0%	D (No activity noticed in this bioassay)	50 to 100%
COc1ccc(NC(=S)NCc2ccc(-c3ncn(-c4ccc(OC(F)(F)C(F)(F)F)cc4)n3)cc2)cc1 [F110, 1-(4-methoxyphenyl)-3-(4-(1-(4-(perfluoroethoxy)phenyl)-1H-1,2,4-triazol-3-yl)benzyl)thiourea]	50 to 100%	0%	0%	D (No activity noticed in this bioassay)	–
CC(C)c1ccccc1NC(=S)Nc1ccc(-c2ncn(-c3ccc(C(F)(F)F)cc3)n2)cc1 [F53, 1-(2-isopropylphenyl)-3-(4-(1-(4-(trifluoromethyl)phenyl)-1H-1,2,4-triazol-3-yl)phenyl)thiourea]	50 to 100%	50 to 100%	0 to 80%	A (80-100)	–
CC(=O)N(C(=S)Nc1cccc(C)c1)c1ccc(-c2ncn(-c3ccc(OC(F)(F)F)cc3)n2)cc1 [F67, N-(m-tolylcarbamothioyl)-N-(4-(1-(4-(trifluoromethoxy)phenyl)-1H-1,2,4-triazol-3-yl)phenyl)acetamide]	0 to 50%	0%	0%	D (No activity noticed in this bioassay)	–
CN(C)c1ccc(NC(=S)NCc2ccc(-c3ncn(-c4ccc(OC(F)(F)C(F)(F)F)cc4)n3)cc2)cc1 [F112, 1-(4-(Dimethylamino)phenyl)-3-(4-(1-(4-(perfluoroethoxy)phenyl)-1H-1,2,4-triazol-3-yl)benzyl)thiourea]	0 to 50%	0%	0%	D (No activity noticed in this bioassay)	–
COc1ccc(NC(=S)NCc2ccc(-c3ncn(-c4ccc(OC(F)(F)C(F)(F)F)cc4)n3)cc2)c(C)c1 [F111, 1-(4-methoxy-2-methylphenyl)-3-(4-(1-(4-(perfluoroethoxy)phenyl)-1H-1,2,4-triazol-3-yl)benzyl)thiourea]	50 to 100%	50 to 100%	0%	A (80-100)	–
